Measured values published in patent US20190359609A1, “BICYCLIC OGA INHIBITOR COMPOUNDS” (Janssen Pharmaceutica NV, priority 2016, published 2019).
Structures can show the parent of a compound that is named as a salt. Where two headings read alike, the source gives them in different places.

Key:
[1] = target: T1, recombinant human Meningioma Expressed Antigen 5 (MGEA5), also referred to as O-GlcNAcase (OGA) (Homo sapiens, UniProt O60502); experiment: OGA biochemical assay: inhibition of FM-GlcNAc hydrolysis, fluorescence (protocol A 10 nM OGA, 1 h; protocol B 2 nM OGA, 6 h)
T1 construct: Full length OGA enzyme was purchased at OriGene (cat # TP322411); purchased OriGene TP322411
T1 sequence (O60502 1-916): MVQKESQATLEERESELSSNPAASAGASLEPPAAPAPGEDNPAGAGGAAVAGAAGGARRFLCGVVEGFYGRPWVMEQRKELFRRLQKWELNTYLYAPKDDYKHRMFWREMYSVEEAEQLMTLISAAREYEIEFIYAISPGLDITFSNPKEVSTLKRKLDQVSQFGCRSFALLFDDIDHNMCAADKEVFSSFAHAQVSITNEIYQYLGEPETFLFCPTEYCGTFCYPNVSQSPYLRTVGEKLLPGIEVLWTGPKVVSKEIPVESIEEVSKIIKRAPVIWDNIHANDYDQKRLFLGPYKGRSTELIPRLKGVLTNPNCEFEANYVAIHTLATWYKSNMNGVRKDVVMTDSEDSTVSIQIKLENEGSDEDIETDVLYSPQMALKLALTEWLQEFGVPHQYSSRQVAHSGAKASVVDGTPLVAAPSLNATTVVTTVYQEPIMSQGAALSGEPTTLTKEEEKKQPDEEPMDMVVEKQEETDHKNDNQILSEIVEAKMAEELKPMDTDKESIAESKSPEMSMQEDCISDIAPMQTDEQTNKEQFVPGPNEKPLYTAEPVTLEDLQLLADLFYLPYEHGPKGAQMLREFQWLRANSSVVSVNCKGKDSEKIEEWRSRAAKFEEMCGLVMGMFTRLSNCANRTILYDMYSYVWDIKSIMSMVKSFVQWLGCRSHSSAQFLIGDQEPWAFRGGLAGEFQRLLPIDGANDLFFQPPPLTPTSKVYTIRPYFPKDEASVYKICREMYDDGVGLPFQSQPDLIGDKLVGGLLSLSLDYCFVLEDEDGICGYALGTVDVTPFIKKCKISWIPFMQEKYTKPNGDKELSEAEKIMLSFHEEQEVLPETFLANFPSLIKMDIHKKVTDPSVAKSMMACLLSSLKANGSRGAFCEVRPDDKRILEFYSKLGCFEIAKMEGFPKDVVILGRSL
Excerpt: The assay is based on the inhibition of the hydrolysis of fluorescein mono-B-D-N-Acetyl-Glucosamine (FM-GlcNAc) (Mariappa et al. 2015, Biochem J 470:255) by the recombinant human Meningioma Expressed Antigen 5 (MGEA5), also referred to as 0-GlcNAcase (OGA). The hydrolysis FM-GlcNAc (Marker Gene technologies, cat # M1485) results in the formation of β-D-N-glucosamineacetate and fluorescein. The fluorescence of the latter can be measured at excitation wavelength 485 nm and emission wavelength 538 nm. An increase in enzyme activity results in an increase in fluorescence signal. Full length OGA enzyme was purchased at OriGene (cat # TP322411). The enzyme was stored in 25 mM Tris.HCl, pH 7.3, 100 mM glycine, 10% glycerol at −20° C. Thiamet G and GlcNAcStatin were tested as reference compounds (Yuzwa et al. 2008 Nature Chemical Biology 4:483; Yuzwa et al. 2012 Nature Chemical Biology 8:393). The assay was performed in 200 mM Citrate/phosphate buffer supplemented with 0.005% Tween-20. 35.6 g Na2HPO4 2 H2O (Sigma, # C0759) were dissolved in 1 L water to obtain a 200 mM solution. 19.2 g citric acid (Merck, #1.06580) was dissolved in 1 L water to obtain a 100 mM solution. pH of the sodiumphosphate solution was adjusted with the citric acid solution to 7.2. The buffer to stop the reaction consists of a 500 mM Carbonate buffer, pH 11.0. 734 mg FM-GlcNAc were dissolved in 5.48 mL DMSO to obtain a 250 mM solution and was stored at −20° C. OGA was used at a 10 nM (protocol A) or 2 nM (protocol B) concentration and FM-GlcNAc at a 100 uM final concentration. Dilutions were prepared in assay buffer.
50 nl of a compound dissolved in DMSO was dispensed on Black Proxiplate™ 384 Plus Assay plates (Perkin Elmer, #6008269) and 3 μl fl-OGA enzyme mix added subsequently. Plates were pre-incubated for 60 min at room temperature and then 2 μl FM-GlcNAc substrate mix added. […] Plates were briefly centrifuged for 1 min at 1000 rpm and incubate at room temperature for 1 h (10 nM OGA, protocol A) or 6 h (2 nM OGA, protocol B). To stop the reaction 5 μl STOP buffer were added and plates centrifuge again 1 min at 1000 rpm. Fluorescence was quantified in the Thermo Scientific Fluoroskan Ascent or the PerkinElmer EnVision with excitation wavelength 485 nm and emission wavelength 538 nm.
For analysis a best-fit curve is fitted by a minimum sum of squares method. From this an IC50 value and Hill coefficient was obtained. High control (no inhibitor) and low control (saturating concentrations of standard inhibitor) were used to define the minimum and maximum values.

OGA = target: T2, OGA (Homo sapiens, UniProt O60502); experiment: OGA cellular assay: ICC detection of O-GlcNAcylated proteins in HEK293 cells inducible for P301L mutant human Tau; format: cell-based; conditions: 6 hours incubation; for EC50: read-out: Cellular hOGA, pEC50 (converted)
T2 construct: endogenous in cells; host or cells: HEK293 cells inducible for P301L mutant human Tau (2N4R)
T2 sequence (O60502 1-916): T1 sequence (O60502 1-916)
Description: HEK293 cells inducible for P301L mutant human Tau (isoform 2N4R) were established at Janssen. Thiamet-G was used for both plate validation (high control) and as reference compound (reference EC50 assay validation). OGA inhibition is evaluated through the immunocytochemical (ICC) detection of O-GlcNAcylated proteins by the use of a monoclonal antibody (CTD110.6; Cell Signaling, #9875) detecting O-GlcNAcylated residues as previously described (Dorfmueller et al. 2010 Chemistry & biology, 17:1250).
Inhibition of OGA will result in an increase of 0-GlcNAcylated protein levels resulting in an increased signal in the experiment. Cell nuclei are stained with Hoechst to give a cell culture quality control and a rough estimate of immediate compounds toxicity, if any. ICC pictures are imaged with a Perkin Elmer Opera Phenix plate microscope and quantified with the provided software Perkin Elmer Harmony 4.1.
Cells were propagated in DMEM high Glucose (Sigma, #D5796) following standard procedures. 2 days before the cell assay cells are split, counted and seeded in Poly-D-Lysine (PDL) coated 96-wells (Greiner, #655946) plate at a cell density of 12,000 cells per cm^2 (4,000 cells per well) in 100 μl of Assay Medium (Low Glucose medium is used to reduce basal levels of GlcNAcylation) (Park et al. 2014 The Journal of biological chemistry 289:13519). At the day of compound test medium from assay plates was removed and replenished with 90 μl of fresh Assay Medium. 10 μl of compounds at a 10fold final concentration were added to the wells. Plates were centrifuged shortly before incubation in the cell incubator for 6 hours. DMSO concentration was set to 0.2%. Medium is discarded by applying vacuum. For staining of cells medium was removed and cells washed once with 100 μl D-PBS (Sigma, #D8537). From next step onwards unless other stated assay volume was always 50 μl and incubation was performed without agitation and at room temperature. Cells were fixed in 50 μl of a 4% paraformaldehyde (PFA, Alpha aesar, #043368) PBS solution for 15 minutes at room temperature. […] Before analysis samples were washed 2 times manually for 5 minutes in ICC base buffer.
Imaging is performed using Perkin Elmer Phenix Opera using a water 20× objective and recording 9 fields per well. Intensity readout at 488 nm is used as a measure of O-GlcNAcylation level of total proteins in wells. To assess potential toxicity of compounds nuclei were counted using the Hoechst staining. IC50-values are calculated using parametric non-linear regression model fitting. As a maximum inhibition Thiamet G at a 200 uM concentration is present on each plate. In addition, a concentration response of Thiamet G is calculated on each plate.

[2] = Enzymatic protocol A (10 nM OGA, 1 h), read-out: Enzymatic Emax (%)
[3] = Enzymatic protocol A (10 nM OGA, 1 h), read-out: Enzymatic hOGA, pIC50 (converted)
[4] = Enzymatic protocol B (2 nM OGA, 6 h), read-out: Enzymatic Emax (%)
[5] = Enzymatic protocol B (2 nM OGA, 6 h), read-out: Enzymatic hOGA, pIC50 (converted)

Structure (SMILES) | Emax [1, 2] [%] | IC50 [1, 3] [nM] | Emax [1, 4] [%] | IC50 [1, 5] [nM] | Emax (OGA) [%] | EC50 (OGA) [nM] | melting point [°C] | Emax ([1]; comparative table, protocol not given, read-out: Emax (OGA inhibitory activity, comparison with 1,4-disubstituted piperidine comparator)) [%] | IC50 ([1]; comparative table, protocol not given, read-out: pIC50 (OGA inhibitory activity, comparison with 1,4-disubstituted piperidine comparator) (converted)) [nM] | OGA inhibitory activity compared with comparator ([1]; greater than the corresponding 1,4-disubstituted piperidine compound (comparator)) | Enzymatic Emax (%) ([1]; Enzymatic protocol B (2 nM OGA, 6 h))
CC(=O)Nc1ncc(S(=O)(=O)N2CCCC(c3cc4ncccc4[nH]3)C2)s1 (single isomer, unassigned) [Compound 4] | 99.7 | 178 | 99.4 | 186 | 44.3 | > 10000 |  |  |  |  | 
CC(c1ccc2c(c1)OCCO2)N1CCCC(c2cc3ncccc3n2C)C1 (stereo not drawn) [Compound 40] |  |  | 102 | 61.7 | 75.1 | 955 |  |  |  |  | 
CC(=O)Nc1ncc(CN2CC[C@@H](Cc3cc4ncccc4n3C)C2)s1 [Compound 58] |  |  | 102 | 2.69 |  |  | 187.16 |  |  |  | 
CC(=O)Nc1ncc(CN2CCC[C@H](c3cc4ncccc4[nH]3)C2)s1 (single isomer, unassigned) [Compound 7] | 104 | 18.2 | 100 | 25.1 | 114 | 21.4 |  | 104 | 18.2 | ~1 order of magnitude | 
CC(=O)Nc1ncc(CN2CCC(Cc3cc4cccnc4n3C)C2)s1 (stereo not drawn) [Compound 60] |  |  | 99.2 | 9.33 |  |  | 153.79 |  |  |  | 
CC(=O)Nc1ncc(CN2CCCC(c3cc4cccnc4[nH]3)C2)s1 (stereo not drawn) [Compound 8] | 101 | 112 | 100 | 105 | 113 | 148 |  |  |  |  | 
CC(=O)Nc1ncc(CN2CCCC(c3nc4cccnc4n3C)C2)s1 (stereo not drawn) [Compound 21] | 101 | 302 |  |  | 101 | 2630 |  |  |  |  | 
CC(=O)Nc1ncc(CN2CCC(Cc3cc4cnccc4n3C)C2)s1 (stereo not drawn) [Compound 61] |  |  | 100 | 1.51 |  |  | 195.06 |  |  |  | 
CC(c1ccc2c(c1)OCO2)N1CCCC(c2cc3ncccc3[nH]2)C1 (single isomer, unassigned) [Compound 31] |  |  |  | 26.9 | 95.8 | 195 |  |  |  |  | 100.4
CC(c1ccc2c(c1)OCCO2)N1CCCC(c2cc3ncccc3[nH]2)C1 (racemic) [Compound 33] |  |  | 98.6 | 55 | 107 | 417 |  |  |  |  | 
c1cnc2cc(C3CCCN(Cc4ccc5c(c4)OCCO5)C3)[nH]c2c1 (stereo not drawn) (as salt: HCl) [Compound 39] |  |  |  |  |  |  | 178.2 |  |  |  | 
CC(=O)Nc1ncc(CN2CC[C@@H](C)[C@H](c3cc4ncccc4[nH]3)C2)s1 (racemic) [Compound 22] | 101 | 41.7 | 102 | 22.4 | 114 | 20.9 |  |  |  |  | 
CC(=O)Nc1ncc(CN2CC[C@H](Cc3cc4ncccc4n3C)C2)s1 [Compound 59] |  |  | 99.7 | 1.17 |  |  | 190.09 |  |  |  | 
CC(=O)Nc1ncc(CN2CCCC(c3cc4ncccc4[nH]3)C2)s1 (single isomer, unassigned) [Compound 6] | 92.3 | 1660 | 79.1 | 2690 | 66.6 | 3630 |  |  |  |  | 
CC(=O)Nc1ncc(CN2CCC(Cc3cc4ncccc4n3C)C2)s1 (stereo not drawn) [Compound 25] |  |  | 102 | 1.51 | 121 | 9.33 |  |  |  |  | 
CC(=O)Nc1ncc(CN2CCCC(Cc3cc4ncccc4n3C)C2)s1 (stereo not drawn) [Compound 26] |  |  | 101 | 2.4 | 118 | < 4.57 |  |  |  |  | 
CC(=O)Nc1ncc(CN2CCCC(c3cc4ccncc4[nH]3)C2)s1 (stereo not drawn) [Compound 11] |  |  | 100 | 74.1 | 103 | 18.2 |  |  |  |  | 
CC(=O)Nc1ncc(CN2CCCC(c3cc4cnccc4[nH]3)C2)s1 (stereo not drawn) [Compound 12] |  |  | 124 | 42.7 | 120 | 17.8 |  |  |  |  | 
c1cnc2cc(C3CCCN(Cc4ccc5c(c4)OCCO5)C3)[nH]c2c1 (stereo not drawn) [Compound 39] | 98.2 | 617 |  |  | 90.3 | 3630 |  |  |  |  | 
CC(=O)Nc1ncc(CN2CCC(Cc3cc4ncccc4[nH]3)C2)s1 (stereo not drawn) [Compound 24] |  |  | 99.8 | 2.14 | 98 | 7.94 |  |  |  |  | 
CC(=O)Nc1ncc(CN2CCCC(c3nc4ncccc4n3C)C2)s1 (stereo not drawn) [Compound 20] | 98 | 155 |  |  | 95.6 | 2630 |  |  |  |  | 
